Laboratory results as given in patent publication US20240307525A1 (priority 2020, published 2024).

Key:
Test in all cases: microbe, parasite or virus in culture
Format in all cases: cell-based, SARS-COV-2
[1] = tested on: rSARS-COV-2/WT; settings: Severe acute respiratory syndrome coronavirus 2, Vero C1008
[2] = tested on: rSARS-COV-2-Nluc; settings: Severe acute respiratory syndrome coronavirus 2, Vero C1008, 48 h
[3] = tested on: rSARS-COV-2-Venus; settings: Severe acute respiratory syndrome coronavirus 2, Vero C1008
[4] = tested on: rSARS-COV-2-mCherry; settings: Severe acute respiratory syndrome coronavirus 2, Vero C1008

`CCC(CC)COC(=O)[C@H](C)N[P@](=O)(OC[C@H]1O[C@@](C#N)(c2ccc3c(N)ncnn23)[C@H](O)[C@@H]1O)Oc1ccccc1` [Remdesivir] gave an EC50 [1] of 1.51 µM, an EC50 [2] of 1.79 µM and an EC50 [3] of 1.07 µM. It also gave an EC50 [4] of 1.78 µM.
